Reference: the supplement of paper PMC10307832

Tests used:
Test in all cases: relative viability (nuclei count vs DMSO), 5 days (fraction); higher = more cells survive
SK-MES-1 = test system: SK-MES-1
Method in brief: (§1)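 Lung cancer cell lines in 1536-well plates were dosed by pin tool the day after seeding, either with one drug alone or with a fixed anchor-drug dose plus five library-drug doses (not always all listed) in √10 steps. After 5 days, cells were fixed and their nuclei stained in one step (final 0.05% Triton X-100, 1% formaldehyde, 1 ug/ml Hoechst), then counted on 4× images. Relative viability is the nuclei count in treated wells divided by that in vehicle wells. Values are medians of duplicate plates.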

NCI-H647 = test system: NCI-H647
Method in brief: as §1

NCI-H1755 = test system: NCI-H1755
Method in brief: as §1

NCI-H1734 = test system: NCI-H1734
Method in brief: as §1

NCI-H838 = test system: NCI-H838
Method in brief: as §1

COR-L23 = test system: COR-L23
Method in brief: as §1

NCI-H2342 = test system: NCI-H2342
Method in brief: as §1

NCI-H358 = test system: NCI-H358
Method in brief: as §1

NCI-H322M = test system: NCI-H322M
Method in brief: as §1

COR-L 105 = test system: COR-L 105
Method in brief: as §1

HARA = test system: HARA
Method in brief: as §1

NCI-H1355 = test system: NCI-H1355
Method in brief: as §1

For `Clc1ccc(Nc2nnc(Cc3ccncc3)c3ccccc23)cc1` [Vatalanib] + CC(=O)c1c(C)c2cnc(Nc3ccc(N4CCNCC4)cn3)nc2n(C2CCCC2)c1=O [Palbociclib] (partner 0.5 µM), the relative viability (SK-MES-1; first compound 0.04 µM) was 0.339, the relative viability (SK-MES-1; first compound 0.1265 µM) was 0.309 and the relative viability (SK-MES-1; first compound 0.4 µM) was 0.347. For the same molecule, the relative viability (SK-MES-1; first compound 1.265 µM) was 0.309, the relative viability (SK-MES-1; first compound 4 µM) was 0.305 and the relative viability (NCI-H647; first compound 0.04 µM) was 0.415. For the same molecule, the relative viability (NCI-H647; first compound 0.1265 µM) was 0.34, the relative viability (NCI-H647; first compound 0.4 µM) was 0.37 and the relative viability (NCI-H647; first compound 1.265 µM) was 0.37. It also gave a relative viability (NCI-H647; first compound 4 µM) of 0.386, a relative viability (NCI-H1755; first compound 0.04 µM) of 0.473 and a relative viability (NCI-H1755; first compound 0.1265 µM) of 0.474. The relative viability (NCI-H1755; first compound 0.4 µM) was 0.457, the relative viability (NCI-H1755; first compound 1.265 µM) was 0.445 and the relative viability (NCI-H1755; first compound 4 µM) was 0.425. It also gave a relative viability (NCI-H1734; first compound 0.04 µM) of 0.338, a relative viability (NCI-H1734; first compound 0.1265 µM) of 0.314 and a relative viability (NCI-H1734; first compound 0.4 µM) of 0.396. It also gave a relative viability (NCI-H1734; first compound 1.265 µM) of 0.33, a relative viability (NCI-H1734; first compound 4 µM) of 0.336 and a relative viability (NCI-H838; first compound 0.04 µM) of 0.227. It also gave a relative viability (NCI-H838; first compound 0.1265 µM) of 0.235, a relative viability (NCI-H838; first compound 0.4 µM) of 0.218 and a relative viability (NCI-H838; first compound 1.265 µM) of 0.203. The relative viability (NCI-H838; first compound 4 µM) was 0.215, the relative viability (COR-L23; first compound 0.04 µM) was 0.364 and the relative viability (COR-L23; first compound 0.1265 µM) was 0.286. The relative viability (COR-L23; first compound 0.4 µM) was 0.322, the relative viability (COR-L23; first compound 1.265 µM) was 0.293 and the relative viability (COR-L23; first compound 4 µM) was 0.297. For the same molecule, the relative viability (NCI-H2342; first compound 0.04 µM) was 0.489, the relative viability (NCI-H2342; first compound 0.1265 µM) was 0.507 and the relative viability (NCI-H2342; first compound 0.4 µM) was 0.46. It also gave a relative viability (NCI-H2342; first compound 1.265 µM) of 0.579, a relative viability (NCI-H2342; first compound 4 µM) of 0.593 and a relative viability (NCI-H358; first compound 0.04 µM) of 0.139. It also gave a relative viability (NCI-H358; first compound 0.1265 µM) of 0.131, a relative viability (NCI-H358; first compound 0.4 µM) of 0.149 and a relative viability (NCI-H358; first compound 1.265 µM) of 0.123. For the same molecule, the relative viability (NCI-H358; first compound 4 µM) was 0.136, the relative viability (NCI-H322M; first compound 0.04 µM) was 0.432 and the relative viability (NCI-H322M; first compound 0.1265 µM) was 0.492. For the same molecule, the relative viability (NCI-H322M; first compound 0.4 µM) was 0.49, the relative viability (NCI-H322M; first compound 4 µM) was 0.501 and the relative viability (COR-L 105; first compound 0.04 µM) was 0.404. The relative viability (COR-L 105; first compound 0.1265 µM) was 0.369, the relative viability (COR-L 105; first compound 0.4 µM) was 0.402 and the relative viability (COR-L 105; first compound 1.265 µM) was 0.441. The relative viability (COR-L 105; first compound 4 µM) was 0.396, the relative viability (HARA; first compound 0.04 µM) was 0.227 and the relative viability (HARA; first compound 0.1265 µM) was 0.361. For the same molecule, the relative viability (HARA; first compound 0.4 µM) was 0.224, the relative viability (HARA; first compound 1.265 µM) was 0.244 and the relative viability (HARA; first compound 4 µM) was 0.238. The relative viability (NCI-H1355; first compound 0.04 µM) was 0.434, the relative viability (NCI-H1355; first compound 0.1265 µM) was 0.428 and the relative viability (NCI-H1355; first compound 0.4 µM) was 0.424. It also gave a relative viability (NCI-H1355; first compound 1.265 µM) of 0.35 and a relative viability (NCI-H1355; first compound 4 µM) of 0.388.
